Laboratory results: patent US4005096A, “Therapeutically active phenoxyalkylamines” (Biersdorf Aktiengesellschaft, priority 1973, dated 1977)
Where a name gives a salt, the structure may show the parent alone. Read-outs that look alike come from different tables or passages of the source.

What was measured:
[1] = acute toxicity (LD50 Mouse), Litchfield and Wilcoxon; settings: in vivo
Description: Tests to determine the toxicity have been carried out. In each case 6 mice were given a particular dose of the compound to be tested combined with a suitable neutral diluent, administration being carried out perorally, intraveneously and/or intraperitoneally.
The statistical evaluation took place according to the method of J. F. Litchfield, Jr. and F. Wilcoxon in: "Journal of Pharmacology and Experimental Therapeutics", Volume 96 (1949), pages 99-113.
In the following Table II the toxicity of Compounds A to M are given.

[2] = system: rats having artificially promoted high blood pressure (according to Goldblatt); test: blood pressure reduction in rats having artificially promoted high blood pressure (according to Goldblatt), plethysmographic at base of tail; assay type: in vivo; settings: Rattus norvegicus, single dose; for change in vivo at 20 mg/kg: 20 mg/kg p.o.
Protocol: To show the blood pressure reducing properties of typical compounds according to the invention, products of the Examples were administered, to rats having artificially promoted high blood pressure (according to Goldblatt), in the form of solution either by injection under the skin of the back (subcutaneously) or by means of a stomach tube (perorally). 1,2.5 and 4 hours (and 1.75 hours in the case of Compound A) after administration of the substance the systolic and diastolic blood pressures were measured plethysmographically at the base of the tail of the rat. In the following Table I there is given for each of the individual compounds (designated A to M) the average value of the blood pressure in mm Hg before the administration of the compound, the time (determined from the measuring time) of maximum blood pressure reduction and the maximum reduction of the systolic and diastolic blood pressures expressed as a percentage of the initial value after a single administration of the dose.

[3] = sc, 10 mg/kg s.c., at the time given in the same line, read-out: Maximum blood pressure reduction, diastolic (percent of initial value)
[4] = sc, 10 mg/kg s.c., at the time given in the same line, read-out: Maximum blood pressure reduction, systolic (percent of initial value)

Q: Which results are given for `Clc1ccccc1OCCCCNCCc1ccncc1` [Compound K, N-[4-Pyridyl-ethyl(2)]-o-chloro-phenoxybutylamine dioxalate monohydrate]?
A: LD50 ([1]; ip): 182 mg/kg; LD50 ([1]; po): 235 mg/kg; change in vivo at 10 mg/kg [2, 3]: -19%; change in vivo at 10 mg/kg [2, 4]: -15%

Q: Which LD50 ([1]; ip) does the source give for `Clc1ccccc1OCCCNCCc1ccncc1` [Compound F, N-[4-Pyridyl-ethyl(2)]-o-chloro-phenoxypropylamine dioxalate dihydrate] here?
A: > 800 mg/kg

Q: What does the source list for `Cc1cccnc1CNCCOc1ccccc1C#N` [Compound J, N-[(3-Methyl-2-pyridyl)-methyl]-o-cyano-phenoxyethylamineoxalate hydrate]?
A: LD50 ([1]; iv): 73.3 mg/kg; LD50 ([1]; po): 660 mg/kg; change in vivo at 10 mg/kg [2, 3]: -12%; change in vivo at 10 mg/kg [2, 4]: -11%

Q: Which LD50 ([1]; ip) does the source give for `COc1ccccc1OCCNCCc1ccccn1` [Compound B, N-[2-Pyridyl-ethyl(2)]-o-methoxy-phenoxyethylamine . 2 HCl] here?
A: 150 mg/kg

Q: What about the LD50 ([1]; iv) of the same molecule?
A: 31.5 mg/kg

Q: And the change in vivo at 10 mg/kg [2, 3]?
A: -23%

Q: What about the change in vivo at 10 mg/kg [2, 4] of the same molecule?
A: -20%

Q: With `COc1ccccc1OCCNCc1ccncc1` [Compound E, N-(4-Pyridyl-methyl)-o-methoxy-phenoxyethylamine . 2 HCl] as the molecule, how does the LD50 ([1]; ip) read?
A: 364 mg/kg

Q: What about the LD50 ([1]; iv) of the same molecule?
A: 90.1 mg/kg

Q: And the LD50 ([1]; po)?
A: 730 mg/kg

Q: What about the change in vivo at 10 mg/kg ([2]; po, 10 mg/kg p.o., read-out: Maximum blood pressure reduction, diastolic (percent of initial value)) of the same molecule?
A: -22%

Q: What about the change in vivo at 10 mg/kg ([2]; po, 10 mg/kg p.o., read-out: Maximum blood pressure reduction, systolic (percent of initial value)) of the same molecule?
A: -20%

Q: And the change in vivo at 10 mg/kg [2, 3]?
A: -18%

Q: And the change in vivo at 10 mg/kg [2, 4]?
A: -15%

Q: Which results are given for `COc1ccccc1OCCNCc1ccccn1` [Compound D, N-(2-Pyridyl-methyl)-o-methoxy-phenoxyethylamine. 2 HCl]?
A: LD50 ([1]; ip): 150 mg/kg; LD50 ([1]; iv): 51 mg/kg; LD50 ([1]; po): 750 mg/kg; change in vivo at 10 mg/kg [2, 3]: -25%; change in vivo at 10 mg/kg [2, 4]: -22%

Q: With `Cc1cccnc1CNCCOc1ccccc1Cl` [Compound H, N-[(3-Methyl-2-pyridyl)-methyl]-o-chloro-phenoxyethylamineoxalate hydrate] as the molecule, how does the LD50 ([1]; ip) read?
A: 220 mg/kg

Q: And the LD50 ([1]; iv)?
A: 50 mg/kg

Q: And the change in vivo at 10 mg/kg [2, 3]?
A: -16%

Q: And the change in vivo at 10 mg/kg [2, 4]?
A: -16%

Q: For `COc1ccccc1OCCNCc1cccnc1` [Compound C, N-(3-Pyridyl-methyl)-o-methoxy-phenoxyethylamine .2 HCl], which LD50 ([1]; ip) is on record?
A: 150 mg/kg

Q: And the LD50 ([1]; iv)?
A: 73.3 mg/kg

Q: What about the LD50 ([1]; po) of the same molecule?
A: 390 mg/kg

Q: What about the change in vivo at 10 mg/kg [2, 3] of the same molecule?
A: -16%

Q: What about the change in vivo at 10 mg/kg [2, 4] of the same molecule?
A: -15%

Q: Which LD50 ([1]; ip) does the source give for `N#Cc1ccccc1OCCNCCc1ccncc1` [Compound L, N-[4-Pyridyl-ethyl(2)]-o-cyano-phenoxyethylamine dioxalate hydrate] here?
A: 91 mg/kg

Q: What about the LD50 ([1]; po) of the same molecule?
A: 245 mg/kg

Q: What about the change in vivo at 10 mg/kg [2, 3] of the same molecule?
A: -19%

Q: And the change in vivo at 10 mg/kg [2, 4]?
A: -17%

Q: With `Clc1ccccc1OCCNCCc1ccncc1` [Compound G, N-[4-Pyridyl-ethyl(2)]-o-chloro-phenoxyethylamine dioxalate dihydrate] as the molecule, how does the LD50 ([1]; ip) read?
A: ~200 mg/kg

Q: What about the LD50 ([1]; iv) of the same molecule?
A: 71.7 mg/kg

Q: Which LD50 ([1]; ip) does the source give for `COc1ccccc1OCCNCCc1ccncc1` [Compound A, N-[4-Pyridyl-ethyl(2)]-o-methoxy-phenoxyethylamine.2 HCl] here?
A: 150 mg/kg

Q: What about the LD50 ([1]; iv) of the same molecule?
A: 53.5 mg/kg

Q: What about the LD50 ([1]; po) of the same molecule?
A: 290 mg/kg

Q: And the change in vivo at 20 mg/kg ([2]; po, read-out: Maximum blood pressure reduction, diastolic (percent of initial value))?
A: -32%

Q: And the change in vivo at 20 mg/kg ([2]; po, read-out: Maximum blood pressure reduction, systolic (percent of initial value))?
A: -28%

Q: And the change in vivo at 10 mg/kg [2, 3]?
A: -34%

Q: And the change in vivo at 10 mg/kg [2, 4]?
A: -25%

Q: Which LD50 ([1]; iv) does the source give for `COc1ccccc1OCCNCc1ncccc1O.Cl.Cl` [Compound M, N-[(3-Hydroxy-2-pyridyl)-methyl]-o-methoxy-phenoxyethylamine dihydrochloride] here?
A: 55.6 mg/kg

Q: What about the change in vivo at 10 mg/kg [2, 3] of the same molecule?
A: -12%

Q: What about the change in vivo at 10 mg/kg [2, 4] of the same molecule?
A: -11%
